Experiment [1] concerns the target T1, purified human platelet fibrinogen receptor (GPIIb/IIIa) (Homo sapiens, UniProt P05106+P08514).
T1 construct: is isolated from human platelet lysates; from tissue
As to the kind of experiment: Test (b): GPIIb/IIIa ELISA, inhibition of biotinylated fibrinogen binding. To be noted: purified human platelet GPIIb/IIIa, ELISA. In a few lines: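 Inhibition of biotinylated fibrinogen ([…]) binding to immobilised human platelet fibrinogen receptor, purified by KYGRGDS peptide affinity chromatography, was measured after 2 h at 30 °C. Readout: streptavidin–biotin-HRP colour with TMB at […]; value expressed as pIC50.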

The target in experiment [2] is T2, human, citrated, platelet-rich plasma (Homo sapiens, UniProt P05106+P08514).
T2 construct: aggregating human, citrated, platelet-rich plasma; endogenous in cells; host or cells: human platelets in citrated platelet-rich plasma
As to the kind of experiment: Test (a): inhibition of ADP stimulated platelet aggregation (Born). Format: cell-based. To be noted: ADP induced aggregation of human platelet-rich plasma. An outline of the steps: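 pA2 calculated by comparing ADP EC50-type (50% response) values in presence and absence of compound, averaged across concentrations (generally 10-^5 M to 10-^10 M). Aggregation (Born) induced by ADP in citrated human platelet-rich plasma, giving dose-response curves.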

Setting [3] is: read-out: Test (b): pIC50 (-log(IC50)), 50% inhibition of biotinylated fibrinogen binding to GPIIb/IIIa (converted).
The mark [4] stands for this setting: read-out: Test (a): pA2 value indicating potency of platelet aggregation inhibition (converted).

Molecules are shown by their SMILES. Where a name gives a salt, the structure may show the parent alone. Read-outs that look alike come from different tables or passages of the source.

T2 sequence (P08514 32-887 limits assumed): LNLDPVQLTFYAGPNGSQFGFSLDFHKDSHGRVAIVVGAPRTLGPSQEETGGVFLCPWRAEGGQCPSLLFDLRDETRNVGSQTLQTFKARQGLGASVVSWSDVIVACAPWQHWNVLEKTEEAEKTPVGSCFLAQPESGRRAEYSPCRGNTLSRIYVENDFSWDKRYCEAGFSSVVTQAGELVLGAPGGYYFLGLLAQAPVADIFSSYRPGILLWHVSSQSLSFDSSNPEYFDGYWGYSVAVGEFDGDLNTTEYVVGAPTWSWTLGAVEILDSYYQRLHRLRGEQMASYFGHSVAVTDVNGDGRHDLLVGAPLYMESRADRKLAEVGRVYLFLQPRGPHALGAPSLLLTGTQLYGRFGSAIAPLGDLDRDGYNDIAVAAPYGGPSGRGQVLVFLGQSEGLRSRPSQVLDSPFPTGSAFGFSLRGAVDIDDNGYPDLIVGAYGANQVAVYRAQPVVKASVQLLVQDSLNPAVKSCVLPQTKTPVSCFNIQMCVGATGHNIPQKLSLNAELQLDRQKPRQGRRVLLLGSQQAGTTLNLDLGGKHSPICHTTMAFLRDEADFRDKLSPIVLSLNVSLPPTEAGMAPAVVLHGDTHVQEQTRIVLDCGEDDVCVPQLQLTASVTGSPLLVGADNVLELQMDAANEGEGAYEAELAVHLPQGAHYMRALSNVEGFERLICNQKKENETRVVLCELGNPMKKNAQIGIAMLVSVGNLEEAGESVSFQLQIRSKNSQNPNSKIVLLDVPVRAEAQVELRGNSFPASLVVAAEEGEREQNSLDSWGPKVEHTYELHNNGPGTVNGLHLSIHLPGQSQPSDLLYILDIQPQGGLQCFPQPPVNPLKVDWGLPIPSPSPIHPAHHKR
T2 sequence (P08514 891-1039 limits assumed): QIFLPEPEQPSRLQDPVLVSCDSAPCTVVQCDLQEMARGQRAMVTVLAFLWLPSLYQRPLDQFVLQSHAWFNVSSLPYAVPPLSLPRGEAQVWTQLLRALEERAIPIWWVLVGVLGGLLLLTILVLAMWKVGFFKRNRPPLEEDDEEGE
T2 sequence (P05106 27-788): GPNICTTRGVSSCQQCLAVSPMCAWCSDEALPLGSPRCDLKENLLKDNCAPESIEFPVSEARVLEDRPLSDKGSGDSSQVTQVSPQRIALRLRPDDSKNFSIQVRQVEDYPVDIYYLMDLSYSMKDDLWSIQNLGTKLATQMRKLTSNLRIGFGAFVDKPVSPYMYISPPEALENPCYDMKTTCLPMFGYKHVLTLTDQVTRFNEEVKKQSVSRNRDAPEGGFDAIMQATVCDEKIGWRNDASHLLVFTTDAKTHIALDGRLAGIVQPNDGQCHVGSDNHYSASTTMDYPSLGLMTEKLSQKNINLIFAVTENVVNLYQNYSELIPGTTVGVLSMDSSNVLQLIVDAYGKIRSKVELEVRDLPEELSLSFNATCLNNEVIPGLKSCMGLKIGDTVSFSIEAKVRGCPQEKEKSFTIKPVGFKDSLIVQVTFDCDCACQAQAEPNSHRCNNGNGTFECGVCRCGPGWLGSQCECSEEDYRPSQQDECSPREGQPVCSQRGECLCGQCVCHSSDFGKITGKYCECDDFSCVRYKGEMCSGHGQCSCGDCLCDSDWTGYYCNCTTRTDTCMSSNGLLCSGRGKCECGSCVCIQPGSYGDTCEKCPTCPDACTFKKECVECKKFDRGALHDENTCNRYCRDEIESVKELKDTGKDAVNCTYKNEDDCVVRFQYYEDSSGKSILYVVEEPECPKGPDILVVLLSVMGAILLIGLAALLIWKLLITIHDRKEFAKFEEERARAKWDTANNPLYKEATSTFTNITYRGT
T1 sequence (P08514 32-887 limits assumed): as the sequence (P08514 32-887 limits assumed) above
T1 sequence (P08514 891-1039 limits assumed): as the sequence (P08514 891-1039 limits assumed) above
T1 sequence (P05106 27-788): as the sequence (P05106 27-788) above

Turning to `CC(C)(Oc1ccc(C(=O)CN2CCN(c3ccncc3)CC2)cc1)C(=O)O` [Example 135, 2-[4-[2-[4-(4-Pyridyl)piperazin-1-yl]acetyl]phenoxy]isobutyric acid, dihydrobromide], the IC50 in experiment [1] (setting [3]) was more than 100 µM. In experiment [2] (setting [4]), the Kb was 31.6 µM.
Turning to `CCCCS(=O)(=O)Nc1ccc(C(=O)CN2CCN(c3ccncc3)CC2)cc1` [Example 20, N-4-[2-[4-(4-Pyridyl)piperazin-1-yl]acetyl]phenyl-1-butanesulphonamide], the IC50 in experiment [1] (setting [3]) was 15.8 µM. Also, the Kb in experiment [2] (setting [4]) was 5.01 µM.
For `O=C(CN1CCN(c2ccncc2)CC1)c1ccc2oc(C(=O)O)cc2c1` [Example 26, 5-[2-[4-(4-Pyridyl)piperazin-1-yl]acetyl]benzofuran-2-carboxylic acid], in that order: 0.631 µM and 1.58 µM.
Regarding `COC(=O)CSc1ccc(C(=O)CN2CCN(c3ccncc3)CC2)cc1` [Example 9, Methyl 4-[2-[4-(4-pyridyl)piperazin-1-yl]acetyl]phenylthioacetate], in experiment [1] (setting [3]), the IC50 was 50.1 µM. The Kb in experiment [2] (setting [4]) was 12.6 µM.
Turning to `COC(=O)COc1ccc2c(c1)CCC(N1CCN(c3ccncc3)CC1)C2=O` (stereo not shown) [Example 80, Methyl 2-[4-(4-pyridyl)piperazin-1-yl]tetralone-6-oxyacetate], the IC50 in experiment [1] (Test (b): pIC50 (-log(IC50)), 50% inhibition of biotinylated fibrinogen binding to GPIIb/IIIa) was 0.398 µM. The same compound had a Kb in experiment [2] (Test (a): pA2 value indicating potency of platelet aggregation inhibition) of 0.251 µM.
For the compound `CCCCS(=O)(=O)N[C@@H](Cc1ccc(OCCCN(C)c2ccncc2)cc1)C(=O)O` [Example 96], the IC50 in experiment [1] (setting [3]) was 0.00398 µM. In addition, the Kb in experiment [2] (setting [4]) was 0.0794 µM.
For `CCCCS(=O)(=O)N[C@@H](Cc1ccc(OCC2CCN(c3ccncc3)CC2)cc1)C(=O)O` [Example 34, 2-S-(n-Butylsulphonylamino)-3-[4-[1-(4-pyridyl)piperidin-4-yl]methoxyphenyl]propionic acid], in that order: 0.002 µM and 0.002 µM.
The corresponding values for `CCCCS(=O)(=O)N[C@@H](Cc1ccc(OCCCC2CCN(c3ccncc3)CC2)cc1)C(=O)O` [Example 82, 2-S-(n-Butylsulphonylamino)-3-[4-[3-[1-(4-pyridyl)piperidin-4-yl]propoxy]phenyl]propionic acid] are 0.0126 µM and 0.501 µM.
The corresponding values for `CCCc1cc(N2CCN(c3ccncc3)CC2)ccc1OCCCC(=O)OCC` [Example 207, Ethyl 4-[2-n-propyl-4-[4-(4-pyridyl)piperazin-1-yl]phenoxy]butyrate] are 1 µM and 0.316 µM.
On to `O=C(O)CCCCOc1ccc(N2CCN(c3ccncc3)CC2)cc1` [Example 53, 5-[4-[4-(4-Pyridyl)piperazin-1-yl]phenoxy]pentanoic acid], for which, in experiment [1] (setting [3]), the IC50 was 1.26 µM. In addition, in experiment [2] (setting [4]), the Kb was 1.58 µM.
For `COC(=O)CCCCc1ccc(CN2CCN(c3ccncc3)CC2)cc1` [Example 179, Methyl 5-[4-[4-(4-pyridyl)piperazin-1-yl]methylphenyl]pentanoate], in that order: 3.98 µM and 15.8 µM.
For `CCCCS(=O)(=O)N[C@@H](Cc1ccc(OCC2CCN(c3ccncc3)CC2)cc1)C(=O)OC` [Example 33, Methyl 2-S-(n-butylsulphonylamino)-3-[4-[1-(4-pyridyl)piperidin-4-yl]methoxyphenyl]propionate], in that order: 0.126 µM and 0.398 µM.
For `O=C(O)c1ccc(Oc2ccc(N3CCN(c4ccncc4)CC3)cc2)nc1` [Example 233, 6-[4-[4-(4-Pyridyl)piperazin-1yl]phenoxy]pyridine-3-carboxylic acid], in that order: 0.501 µM and 6.31 µM.
`O=C(O)CC(NC(=O)c1cccc(CN2CCN(c3ccncc3)CC2)c1)c1ccccc1` (stereo not shown) [Example 55, 3-[3-[4-(4-Pyridyl)piperazin-1-ylmethyl]]benzamido-3-phenylpropionic acid]: in experiment [1] (setting [3]), the IC50 was 15.8 µM. In addition, the Kb in experiment [2] (setting [4]) was 31.6 µM.

The values are drawn from US5750754A, “Heterocyclic compounds” (Zeneca Limited, priority 1993, dated 1998).
